We go through five molecules from patent US12391991B2, “Markers to predict macrocyclic lactone drug resistance in Dirofilaria immitis, the causative agent of heartworm disease” (priority 2013, dated 2025).

In data set [1] the test system is D. immitis microfilariae (LOE isolate case 4). To be noted: in vivo.
Data set [2] deals with D. immitis mf from dog Jd2009. The data set is classed as cell-based, Dirofilaria immitis.
Data set [3] concerns D. immitis microfilariae. Also noted: species or system Dirofilaria immitis. To be noted: in vivo.
The test system of data set [4] is D. immitis (LOE isolate case 5). On the set-up: species or system Dirofilaria immitis. To be noted: in vivo.
In data set [5] the test system is adult heartworms (D. immitis). On the set-up: species or system Dirofilaria immitis. To be noted: in vivo.
Data set [6] has as its system D. immitis (LOE isolate case 2). On the set-up: species or system Dirofilaria immitis. To be noted: in vivo.
In data set [7] the test system is D. immitis Jd2009-2 isolate. On the set-up: species or system Dirofilaria immitis. To be noted: in vivo.

“Also recorded” adds a separate entry of the source. Read-outs that look alike come from different tables or passages of the source. Marks after values point to notes of the source that are not given here.

As for `CCN(CC)C(=O)N1CCN(C)CC1` [diethylcarbamazine], in data set [1], the Blood smear entry was “no mf” and the “Side effects of the treatment” value is recorded as “No side effects”.
Regarding `CC[C@H](C)[C@H]1O[C@]2(CC[C@@H]1C)C[C@@H]1C[C@@H](C/C=C(\C)[C@@H](O[C@H]3C[C@H](OC)[C@@H](O[C@H]4C[C@H](OC)[C@@H](O)[C@H](C)O4)[C@H](C)O3)[C@@H](C)/C=C/C=C3\CO[C@@H]4[C@H](O)C(C)=C[C@@H](C(=O)O1)[C@]34O)O2` [IVM, ivermectin], the “Sensitivity of mf to drug” value in data set [2] is on record as “significantly less sensitive”. For the same molecule, in data set [3], the “Knott's test result” value was “Knott's test +ve^a” and the Microfilaremic status result is reported as “remained continually microfilaremic; also recorded: still microfilaremic”. In addition, in data set [3] (po), the “Microfilariae concentration in blood” value is on record as ≥100^b mf/ml. Moreover, the “mf status during weekly dosing” value in data set [4] is reported as “remained positive for mf”. Moreover, in data set [1], the “Knott's test” value is reported as “again positive” and the “Knott's tests” value is reported as “both positive”.
Take `Cl.Cl.NCCS[As](SCCN)c1ccc(Nc2nc(N)nc(N)n2)cc1` [melarsomine dihydrochloride]: in data set [5], the “D. immitis antigen test” value is “negative”. In addition, the “Antigen test Name-result (+ve or −ve)” value in data set [5] (dihydrochloride) is “SNAP −ve^a; also recorded: DiroChek −ve^c; also recorded: PetChek −ve^a”.
As to milbemycin oxime [MO], in data set [3], the “Knott's test result” value is “Knott's test +ve^a; also recorded: Knott's test +ve^c”, the Microfilaremic status entry is given as “remained continually microfilaremic”, the “Microfilariae concentration in blood” value is on record as ≥100^b mf/ml and the Microfilariae in blood result was “microfilariae were still present”. The Heartworm antigen status entry in data set [6] is on record as “heartworm antigen positive”. In addition, the Heartworm antigen test result in data set [4] is on record as “positive heartworm antigen test”. Besides, the “Knott's test” value in data set [1] (po) was “positive”. Besides, the “Outcome of monthly chemoprophylaxis as recommended” value in data set [7] is on record as “at least one dog in groups of four to six dogs on these heartworm preventatives became infected”.
`CO[C@H]1C[C@H](O[C@@H]2/C(C)=C/C[C@@H]3C[C@@H](C[C@]4(CC[C@H](C)[C@@H](C5CCCCC5)O4)O3)OC(=O)[C@@H]3C=C(C)/C(=N/O)[C@H]4OC/C(=C\C=C\[C@@H]2C)[C@]43O)O[C@@H](C)[C@@H]1O` [SEL, selamectin]: the “Outcome of monthly chemoprophylaxis as recommended” value in data set [7] is given as “at least one dog in groups of four to six dogs on these heartworm preventatives became infected”.
